Test results taken from PMC7939391, “[4Fe-4S] cluster trafficking mediated by Arabidopsis mitochondrial ISCA and NFU proteins” (The Journal of Biological Chemistry, 2021).

Target: T1, ACO2 (Arabidopsis thaliana, UniProt Q94A28)
T1 construct: untagged recombinant from pET15b (NcoI-XhoI), E. coli BL21(DE3); forward primer encodes start MASEHSY (transit peptide removed)
T1 sequence (Q94A28 98-995): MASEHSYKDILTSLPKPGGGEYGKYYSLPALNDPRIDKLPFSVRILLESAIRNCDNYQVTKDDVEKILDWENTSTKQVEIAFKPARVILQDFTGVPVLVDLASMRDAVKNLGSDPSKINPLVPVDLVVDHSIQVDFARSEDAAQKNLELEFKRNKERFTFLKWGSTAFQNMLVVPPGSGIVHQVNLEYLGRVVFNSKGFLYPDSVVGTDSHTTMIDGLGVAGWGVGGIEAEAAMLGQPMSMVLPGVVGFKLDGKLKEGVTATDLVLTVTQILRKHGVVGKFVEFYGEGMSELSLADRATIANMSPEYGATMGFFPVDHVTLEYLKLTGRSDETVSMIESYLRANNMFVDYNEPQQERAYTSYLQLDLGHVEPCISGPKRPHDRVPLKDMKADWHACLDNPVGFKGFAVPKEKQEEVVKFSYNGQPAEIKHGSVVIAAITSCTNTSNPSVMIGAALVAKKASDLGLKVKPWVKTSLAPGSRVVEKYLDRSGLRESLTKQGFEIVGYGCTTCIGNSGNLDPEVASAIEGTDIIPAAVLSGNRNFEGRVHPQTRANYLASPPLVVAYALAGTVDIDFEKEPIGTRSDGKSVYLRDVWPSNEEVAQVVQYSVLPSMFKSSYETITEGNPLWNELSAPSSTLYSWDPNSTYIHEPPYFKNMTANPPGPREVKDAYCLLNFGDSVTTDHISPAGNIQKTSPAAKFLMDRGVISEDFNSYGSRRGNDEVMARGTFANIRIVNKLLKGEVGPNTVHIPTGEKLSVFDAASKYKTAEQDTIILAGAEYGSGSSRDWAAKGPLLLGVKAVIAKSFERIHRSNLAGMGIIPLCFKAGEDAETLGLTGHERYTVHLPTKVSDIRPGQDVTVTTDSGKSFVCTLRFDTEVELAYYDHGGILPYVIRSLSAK
Assay: absorbance at […] nm
Assay type: biochemical
Settings: from citrate or isocitrate; [4Fe-4S]-loaded enzyme

For `O=C(O)/C=C(/CC(=O)O)C(=O)O` [cis-aconitate], the “absorbance at 240 nm” value was “following the formation of cis-aconitate from citrate or isocitrate”.
